Reference: US11975073B2 (priority 2020, dated 2024)
Where two headings read alike, the source gives them in different places.

Tests used:
[1] = male, Sprague-Dawley, rat, in vivo, po
[2] = Sprague-Dawley, rat, in vivo, 8.8 umol/kg
[3] = cynomolgus monkey, in vivo, po; for AUCinf, free allopregnanolone / AUCinf, total allopregnanolone / Cmax, free allopregnanolone / Cmax, total allopregnanolone: male, 8.8 umol/kg

In the case of `CCCCCCCC/C=C\CCCCCCCC(=O)OCC(COC(=O)CCCCCCC/C=C\CCCCCCCC)OC(=O)CC(C)CC(=O)OCO[C@@H]1CC[C@@]2(C)[C@@H](CC[C@@H]3[C@@H]2CC[C@]2(C)[C@@H](C(C)=O)CC[C@@H]32)C1` (stereo partly drawn) [I-9], the Cmax ([1]; 2 mg/kg) is reported as 126 nM, the “Mean Plasma AUC, 0-24 h” value ([1]; 2 mg/kg) is reported as 192.1 nM·h and the Tmax ([1]; 2 mg/kg) is reported as 1.3 h.
With `CCCCCCCC(=O)OCC(COC(=O)CCCCCCC)OC(=O)CC(C)CC(=O)OC(C)OC(=O)O[C@@H]1CC[C@@]2(C)[C@@H](CC[C@@H]3[C@@H]2CC[C@]2(C)[C@@H](C(C)=O)CC[C@@H]32)C1` (stereo partly drawn) [I-36, ALL-CMSI-C5bMe-2-TG-octanoate] the Cmax [1] was 242 nM, the Tmax [1] was 1.2 h and the “AUCinf, free allopregnanolone” value [2] was 1.12 nM·h. The “AUCinf, total allopregnanolone” value [2] was 3.86 nM·h, the “Cmax, free allopregnanolone” value [2] was 540 nM and the “Cmax, total allopregnanolone” value [2] was 800 nM. The “Prodrug detectability in plasma samples after dose administration” value [3] was “detectable in plasma samples after dose administration at all time-points”, the “AUCinf, free allopregnanolone” value [3] was 0.62 nM·h and the “AUCinf, total allopregnanolone” value [3] was 16.2 nM·h. For the same molecule, the “Cmax, free allopregnanolone” value [3] was 100 nM and the “Cmax, total allopregnanolone” value [3] was 2720 nM.
In the case of `CCCC(=O)OCC(COC(=O)CCC)OC(=O)CC(C)CC(=O)OC(C)OC(=O)O[C@@H]1CC[C@@]2(C)[C@@H](CC[C@@H]3[C@@H]2CC[C@]2(C)[C@@H](C(C)=O)CC[C@@H]32)C1` (stereo partly drawn) [I-37], the Tmax [1] is reported as 0.8 h.
In the case of `CC(=O)OCC(COC(C)=O)OC(=O)CC(C)CC(=O)OC(C)OC(=O)O[C@@H]1CC[C@@]2(C)[C@@H](CC[C@@H]3[C@@H]2CC[C@]2(C)[C@@H](C(C)=O)CC[C@@H]32)C1` (stereo partly drawn) [I-38], the “Mean Plasma AUC, 0-24 h” value [1] is reported as 450 nM·h and the Tmax [1] is reported as 1 h.
In the case of `CCCCCCCC/C=C\CCCCCCCC(=O)OCC(COC(=O)CCCCCCC/C=C\CCCCCCCC)OC(=O)CCCCC(=O)OCO[C@@H]1CC[C@@]2(C)[C@@H](CC[C@@H]3[C@@H]2CC[C@]2(C)[C@@H](C(C)=O)CC[C@@H]32)C1` [I-40], the Tmax ([1]; 2 mg/kg) is reported as 1.7 h.
Molecule `CCCCCCCC/C=C\CCCCCCCC(=O)OCC(COC(=O)CCCCCCC/C=C\CCCCCCCC)OC(=O)CCCCCCC(=O)OCO[C@@H]1CC[C@@]2(C)[C@@H](CC[C@@H]3[C@@H]2CC[C@]2(C)[C@@H](C(C)=O)CC[C@@H]32)C1` [I-41] has a Tmax ([1]; 2 mg/kg) of 1.7 h.
Work on `CCCCCCCC/C=C\CCCCCCCC(=O)OCC(COC(=O)CCCCCCC/C=C\CCCCCCCC)OC(=O)CC(C)CCCCC(=O)OCO[C@@H]1CC[C@@]2(C)[C@@H](CC[C@@H]3[C@@H]2CC[C@]2(C)[C@@H](C(C)=O)CC[C@@H]32)C1` (stereo partly drawn) [I-42] yielded a Tmax ([1]; 2 mg/kg) of 1.5 h.
In the case of `CCCCCCCC(=O)OCC(COC(=O)CCCCCCC)OC(=O)CC(C)CC(=O)OCOC(=O)O[C@@H]1CC[C@@]2(C)[C@@H](CC[C@@H]3[C@@H]2CC[C@]2(C)[C@@H](C(C)=O)CC[C@@H]32)C1` (stereo partly drawn) [I-47, ALL-CASI-C5bMe-2-TG-octanoate], the “AUCinf, free allopregnanolone” value [2] is reported as 1.15 nM·h, the “AUCinf, total allopregnanolone” value [2] is reported as 3.03 nM·h and the “Cmax, free allopregnanolone” value [2] is reported as 520 nM. For the same molecule, the “Cmax, total allopregnanolone” value [2] was 900 nM, the “Prodrug detectability in plasma samples after dose administration” value [3] was “detectable in plasma samples after dose administration at all time-points” and the “AUCinf, free allopregnanolone” value [3] was 0.78 nM·h. The “AUCinf, total allopregnanolone” value [3] was 7.4 nM·h, the “Cmax, free allopregnanolone” value [3] was 120 nM and the “Cmax, total allopregnanolone” value [3] was 1170 nM.
Molecule `CCCCCCCC/C=C\CCCCCCCC(=O)OCC(COC(=O)CCCCCCC/C=C\CCCCCCCC)OC(=O)CCCCC(C)CC(=O)OCOC(=O)O[C@@H]1CC[C@@]2(C)[C@@H](CC[C@@H]3[C@@H]2CC[C@]2(C)[C@@H](C(C)=O)CC[C@@H]32)C1` (stereo partly drawn) [I-49, ALL-CASI-C8b′Me-2-TG-oleate] has a Tmax ([1]; 2 mg/kg) of 1.7 h.
